{"source": "patent US20070259928A1", "about": "“Medicinal Composition for Treating Diabetes” (priority 2004, published 2007)", "key": {"[1]": {"system": "Zucker diabetic fatty (ZDF) rats", "assay": "Test Example 1: glycosylated hemoglobin ratio after 6 weeks of repeated, timed administration of Compound A and metformin", "type": "in vivo, rat", "conditions": "for glycosylated hemoglobin ratio vs control group: 100-150 mg/kg each once daily", "protocol": "Eleven-week old Zucker diabetic fatty (ZDF) rats, that spontaneously developed diabetes mellitus, were grouped into 3 groups (7 rats per group). Feeding was limited to from 17:00 to 9:00, and Compound A and metformin (purchased from Sigma Chemical Co., Ltd.) were repeatedly administered for 6 weeks. Doses of Compound A and metformin were 100-150 mg/kg each once daily, and administered at 9:00 AM (9:00) or 4:00 PM (16:00). In the group administered Compound A at 9:00 AM, metformin was administered at 4:00 PM (AM-Compound A/PM-metformin administered group; Group A), and in the group administered metformin at 9:00 AM, Compound-A was administered at 4:00 PM (AM-metformin/PM-Compound A administered group; Group B). The dose of each compound per day in both groups was fixed at the same. Vehicle alone was administered to the remaining group (control group) twice a day. After repeated administration of the compounds for 6 weeks, blood sample was collected from the tail vein of each rat, and ratios of glycosylated hemoglobin levels in erythrocytes were determined by DCA2000 manufactured by Bayer Medical Ltd. Glycosylated hemoglobin is non-enzymatically formed by binding of glucose to hemoglobin, and the ratio of glycosylated hemoglobin is increased by sustained hyperglycemia. Thus the glycosylated hemoglobin ratio is widely used as an indicator of a long-term therapy (or control of blood glucose levels) in patients with diabetes mellitus. The average and standard error of the glycosylated hemoglobin ratio determined in each group were calculated and are shown in FIG. 1."}, "[2]": {"system": "Goto-Kakizaki (GK) rats", "assay": "Test Example 2: blood glucose lowering rate 4 hours after oral Compound A in fasted and non-fasted rats", "type": "in vivo, rat", "conditions": "30 mg/kg oral", "protocol": "Thirty-six-week old Goto-Kakizaki (GK) rats (purchased from Charles River Japan, Inc.), that spontaneously developed diabetes mellitus, were grouped into 4 groups such as “non-fasting control group”, “non-fasting and Compound A administered group”, “fasting control group”, and “fasting and Compound A administered group” (6 rats per group).\nIn Compound A administered groups, Compound A (30 mg/kg) was orally administered, and vehicle alone was administered to two control groups. In addition, rats in two fasting groups were fasted from one day before oral administration of Compound A, and rats in two non-fasting groups were fasted immediately after Compound A was administered [the rats were allowed to take food pellets (FR2, manufactured by Funabashi Farm Co., Ltd.) ad libitum until fasting was started]. Blood sample was collected from the tail vein immediately before and 4 hours after oral administration of Compound A. Blood glucose level was determined by electric potential measurement method based on glucose oxidase immobilized electrode using Glucoloader GXT (A&T Corp.). The blood glucose lowering rate (%) at 4 hours after administration of Compound A against the blood glucose level before administration was calculated in individual rats according to the following equation, and the average blood glucose lowering rate and its standard error in each group are summarized in FIG. 2. [Blood glucose lowering rate(%)]=100×([…])/[blood glucose level before administration]"}}, "data": [{"smiles": "CCOC(=O)[C@H](C)NP(=O)(N[C@@H](C)C(=O)OCC)c1ccc(-c2nc(N)sc2CC(C)C)o1", "note": "[Compound A, 2-amino-5-isobutyl-4-{2-[5-(N,N′-bis((S)-1-ethoxycarbonyl)ethyl)phosphonamido]furanyl}thiazole]", "values": [{"measurement": "glycosylated hemoglobin ratio, Group B vs Group A", "setting": "[1]; AM-metformin/PM-Compound A compared with AM-Compound A/PM-metformin, same daily doses, p=0.0330, Tukey test", "result": "improved diabetes mellitus more remarkably"}, {"measurement": "glycosylated hemoglobin ratio vs control group", "setting": "[1]; Group A: Compound A at 9:00 AM, metformin at 4:00 PM, p=0.0749, Tukey test", "result": "not significantly different from that in the control group"}, {"measurement": "glycosylated hemoglobin ratio vs control group", "setting": "[1]; Group B: metformin at 9:00 AM, Compound A at 4:00 PM, p=0.0002, Tukey test", "result": "significantly lower than that in the control group"}, {"measurement": "blood glucose lowering rate at 4 hours after administration vs corresponding control group", "setting": "[2]; GK rats fasted from one day before dosing, p=0.0236, t-test", "result": "significantly reduced"}, {"measurement": "blood glucose lowering rate at 4 hours, fasting group vs non-fasting group", "setting": "[2]; GK rats, both groups given Compound A, p=0.0158, t-test", "result": "significantly lower"}, {"measurement": "blood glucose lowering rate at 4 hours after administration vs corresponding control group", "setting": "[2]; non-fasting GK rats, p=0.0196, t-test", "result": "significantly reduced"}]}]}
